Assay results: US8143374B2, “Polypeptide derivatives of parathyroid hormone (PTH)” (The General Hospital Corporation, priority 2006, dated 2012)
Values joined by “and” are separate entries in the source; they are usually repeats but may differ in a detail not shown here. Equal values may be shown once. Read-outs that look alike come from different tables or passages of the source. Where a SMILES comes first, the peptide text is derived from it. Where no end group is shown, it is not given here. [ ]: non-standard residue; d: D form. hArg = N=C(N)NCCCC[C@H](N)C(=O)O; Cha = N[C@@H](CC1CCCCC1)C(=O)O; Nle = CCCC[C@H](N)C(=O)O; Aib = CC(C)(N)C(=O)O

Assays:
[1] = Circular dichroism spectroscopy, helical residues per peptide chain; assay type: physicochemical; conditions: calculated from [θ]222
Experimental: Circular Dichroism—CD spectra were obtained on a JASCO J-600 spectropolarimeter at 20° C. Four spectra were averaged and the data smoothed by the JASCO software. The instrument was calibrated with ammonium (+)-10-camphorsulfonate. Peptide concentrations were verified from the absorption at 280 nm, using an extinction coefficient of 5700 M^−1 for the single tryptophan. Data are expressed as the number of helical residues per peptide chain, as calculated from −[θ]222×30/28,000, where [θ]222 is the mean residue elipticity ([θ]) at 222 nm, as was described previously (Barbier, J. R., et al. (2005) J Biol Chem. 280:23771-23777).

[2] = target: T1, PTHR-delNt (Homo sapiens, UniProt Q03431, DEL24-181); test: Competition binding in COS-7 cell membranes with 125I-[Aib1,3,M]PTH(1-15)NH2 tracer; conditions: for IC50: COS-7 membranes cotransfected with negative-dominant Gαs
T1 construct: expressed in transfected cells; host or cells: COS-7 cells, transient co-transfection; membranes prepared
T1 sequence (Q03431 with tags, fused parts or gaps DEL24-181): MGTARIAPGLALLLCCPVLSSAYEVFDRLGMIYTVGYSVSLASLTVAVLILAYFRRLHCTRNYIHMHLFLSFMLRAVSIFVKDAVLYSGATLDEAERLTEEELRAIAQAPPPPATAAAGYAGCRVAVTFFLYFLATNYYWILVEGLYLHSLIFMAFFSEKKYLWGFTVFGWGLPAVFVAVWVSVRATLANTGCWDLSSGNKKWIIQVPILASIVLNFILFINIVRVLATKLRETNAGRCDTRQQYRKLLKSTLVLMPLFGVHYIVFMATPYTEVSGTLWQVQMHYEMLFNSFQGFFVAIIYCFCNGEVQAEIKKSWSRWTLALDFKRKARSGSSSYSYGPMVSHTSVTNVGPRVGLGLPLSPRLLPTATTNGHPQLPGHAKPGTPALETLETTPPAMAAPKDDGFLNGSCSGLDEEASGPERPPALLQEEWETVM
Experimental: PTHR-delNt is a derivative of the human PTHR that is deleted for most (Ala^24-Arg^181) of the amino-terminal extracellular domain (Shimizu, M., et al. (2001) Endocrinology 142:3068-3074). This PTHR construct was expressed in COS-7 cells via transient DNA transfection. For cAMP assays, the cells were transfected in 24-well plates using 0.2 μg of plasmid DNA and 0.6 μl of Fugene-6 reagent (Roche Diagnostics, Indianapolis Ind.) per well, and assays were performed on the intact cells three to four days after transfection. For binding assays, cell membranes were prepared from transfected COS-7 cells. To increase the maximal binding of ^125I-[Aib^1,3,M]PTH(1-15)NH2 to PTHR-delNt in these membranes, the cells were cotransfected with a negative dominant mutant Gαs protein (Gαs^ND). This mutant Gαs subunit is thought to couple to cognate receptors, and thus stabilize high affinity receptor conformations, more efficiently than does wild-type Gαs, without increasing basal cAMP levels (Berlot, C. H. (2002) J Biol Chem 277:21080-5). A precursor of this mutant Gαs, Gαs(α3β5), was recently used to increase binding of ^125I-[Aib^1,3,M]PTH(1-15)NH2 to PTHR-delNt in COS-7 cell membranes (Dean, T., (2006) Mol Endocrinol 20:931-942). Gαs^ND, which contains the same five amino acid replacement of corresponding Gαi residues in the α3β5 loop as Gαs(α3β5), plus the point mutations of Gly^226 to Ala, which increases affinity for Gβ/γ, and Ala^366 to Ser, which decreases affinity for GDP, yields approximately two-fold higher levels of specific binding of ^125I-[Aib^1,3,M]PTH(1-15)NH2 than does Gαs(α3β5) (data not shown). For the current membrane preparations, COS-7 cells were co-transfected in six-well plates using 1 μg of each plasmid DNA encoding PTHR-delNt and Gαs^ND, and 6 μl of Fugene-6 reagent (Roche Diagnostics, Indianapolis Ind.) per well. Cells were harvested three days after transfection, and membranes were prepared as described (Dean, T., et al. (2006) Mol Endocrinol 20:931-942).
Receptor binding—Binding to the wild-type human PTHR in intact HKRK-B7 cells and ROS 17/2.8 cells was assessed using ^125I-PTH(1-34) as a tracer radioligand, as described (Shimizu, M., (2001) Endocrinology 142:3068-3074). In brief, the cells in 24-well plates (about 500,000 cells per well) were incubated in binding buffer containing radioligand (about 100,000 cpm per well) with or without unlabeled peptide ligand (3×10^−9 to 1×10^−5 M) for four hours at 15° C. The binding mixture was then removed by aspiration, the cells were rinsed three times with binding buffer, lysed in 1 M NaOH, and the entire lysate was counted for gamma-irradiation in a gamma counter. Binding to PTHR-delNt in COS-7 cell membranes was assessed in 96-well, vacuum filtration plates (Multiscreen-Durapore HV, […] membranes, Millipore Corp., Millford, Mass.) using ^125I-[Aib^1,3,M]PTH(1-15)NH2 as a tracer radioligand, as described (Dean, T., (2006) Mol Endocrinol 20:931-942). In brief, cell membranes (20 μg/well) were incubated in membrane binding buffer containing radioligand (30,000 cpm/well) with or without unlabeled peptide ligand (3×10^−9 to 1×10^−5 M) for 90 minutes at 21° C. The plates were then subject to rapid vacuum filtration, the filters were washed once with buffer, detached from the plate and counted for gamma-irradiation in a gamma counter. Non-specific binding was defined as the binding observed in the presence of 1×10^−6 M PTH(1-31)NH2 for HKRK-B7 and ROS 17/2.8 cells, and 1×10^−6 M [Aib^1,3,M]PTH(1-15)NH2 for PTHR-delNt. Specifically bound radioactivity was calculated as a percentage of the radioactivity specifically bound in the absence of competing ligand. […]

[3] = [Ala1,Arg19]hPTH(1-31)NH2 analogs
[4] = [Ala1,Arg19]hPTH(1-31)NH2 analogs, read-out: PTHR-delNT (COS-7) IC50
[5] = hPTH(1-31)NH2 analogs, read-out: PTHR-delNT (COS-7) IC50

Compound	CD helical residues [1, 3]	IC50 [2, 4]	IC50 [2, 5]	further results
CC[C@H](C)[C@H](NC(=O)[C@H](CCC(=O)O)NC(=O)[C@H](CO)NC(=O)[C@@H](NC(=O)[C@H](C)N)C(C)C)C(=O)N[C@@H](CCC(N)=O)C(=O)N[C@@H](CC(C)C)C(=O)N[C@@H](CCSC)C(=O)N[C@@H](Cc1c[nH]cn1)C(=O)N[C@@H](CC(N)=O)C(=O)N[C@@H](CC(C)C)C(=O)NCC(=O)N[C@@H](CCCCN)C(=O)N[C@@H](Cc1c[nH]cn1)C(=O)N[C@@H](CC(C)C)C(=O)N[C@@H](CC(N)=O)C(=O)N[C@@H](CO)C(=O)N[C@@H](CCSC)C(=O)N[C@@H](CC1CCCCC1)C(=O)N[C@@H](CCCNC(=N)N)C(=O)N[C@H](C(=O)N[C@@H](CCC(=O)O)C(=O)N[C@@H](Cc1c[nH]c2ccccc12)C(=O)N[C@@H](CC(C)C)C(=O)N[C@@H](CCCNC(=N)N)C(=O)N[C@@H](CCCCN)C(=O)N[C@@H](CCCCN)C(=O)N[C@@H](CC(C)C)C(=O)N[C@@H](CCC(N)=O)C(=O)N[C@@H](CC(=O)O)C(=O)N[C@H](C(N)=O)C(C)C)C(C)C [Arg^19→Cha] (H-AVSEIQLMHNLGKHLNSM[Cha]RVEWLRKKLQDV-NH2; N-terminus assumed)	10	780 ± 83 nM		
CCCC[C@H](NC(=O)[C@H](CCC(=O)O)NC(=O)[C@H](CCSC)NC(=O)[C@H](CO)NC(=O)[C@H](CC(N)=O)NC(=O)[C@H](CC(C)C)NC(=O)[C@H](Cc1c[nH]cn1)NC(=O)[C@H](CCCCN)NC(=O)CNC(=O)[C@H](CC(C)C)NC(=O)[C@H](CC(N)=O)NC(=O)[C@H](Cc1c[nH]cn1)NC(=O)[C@H](CCSC)NC(=O)[C@H](CC(C)C)NC(=O)[C@H](CCC(N)=O)NC(=O)[C@@H](NC(=O)[C@H](CCC(=O)O)NC(=O)[C@H](CO)NC(=O)[C@@H](NC(=O)[C@@H](N)CO)C(C)C)[C@@H](C)CC)C(=O)N[C@H](C(=O)N[C@@H](CCC(=O)O)C(=O)N[C@@H](Cc1c[nH]c2ccccc12)C(=O)N[C@@H](CC(C)C)C(=O)N[C@@H](CCCNC(=N)N)C(=O)N[C@@H](CCCCN)C(=O)N[C@@H](CCCCN)C(=O)N[C@@H](CC(C)C)C(=O)N[C@@H](CCC(N)=O)C(=O)N[C@@H](CC(=O)O)C(=O)N[C@H](C(N)=O)C(C)C)C(C)C [Arg^20→Nle] (H-SVSEIQLMHNLGKHLNSME[Nle]VEWLRKKLQDV-NH2; N-terminus assumed)			10700 nM	CD helical residues ([1]; hPTH(1-31)NH2 analogs): 12
CC[C@H](C)[C@H](NC(=O)[C@H](CCC(=O)O)NC(=O)[C@H](CO)NC(=O)[C@@H](NC(=O)[C@H](C)N)C(C)C)C(=O)N[C@@H](CCC(N)=O)C(=O)N[C@@H](CC(C)C)C(=O)N[C@@H](CCSC)C(=O)N[C@@H](Cc1c[nH]cn1)C(=O)N[C@@H](CC(N)=O)C(=O)N[C@@H](CC(C)C)C(=O)NCC(=O)N[C@@H](CCCCN)C(=O)N[C@@H](Cc1c[nH]cn1)C(=O)N[C@@H](CC(C)C)C(=O)N[C@@H](CC(N)=O)C(=O)N[C@@H](CO)C(=O)N[C@@H](CCSC)C(=O)N[C@@H](CCCNC(=N)N)C(=O)N[C@@H](CCCNC(=N)N)C(=O)N[C@H](C(=O)N[C@@H](CCC(=O)O)C(=O)N[C@@H](Cc1c[nH]c2ccccc12)C(=O)N[C@@H](CC(C)C)C(=O)N[C@@H](CC1CCCCC1)C(=O)N[C@@H](CCCCN)C(=O)N[C@@H](CCCCN)C(=O)N[C@@H](CC(C)C)C(=O)N[C@@H](CCC(N)=O)C(=O)N[C@@H](CC(=O)O)C(=O)N[C@H](C(N)=O)C(C)C)C(C)C [Arg^25→Cha] (H-AVSEIQLMHNLGKHLNSMRRVEWL[Cha]KKLQDV-NH2; N-terminus assumed)	9			reduction (alteration) of binding affinity for PTHR-delNt relative to parent peptide ([2]; COS-7 membranes, versus the respective parent peptide): approximately five- to seven-fold; IC50 ([2]; PTHR-delNT (COS-7) IC50, [Ala1,Arg19]hPTH(1-31)NH2 analogs): 2710 ± 1310 nM
CC[C@H](C)[C@H](NC(=O)[C@H](CCC(=O)O)NC(=O)[C@H](CO)NC(=O)[C@@H](NC(=O)[C@H](C)N)C(C)C)C(=O)N[C@@H](CCC(N)=O)C(=O)N[C@@H](CC(C)C)C(=O)N[C@@H](CCSC)C(=O)N[C@@H](Cc1c[nH]cn1)C(=O)N[C@@H](CC(N)=O)C(=O)N[C@@H](CC(C)C)C(=O)NCC(=O)N[C@@H](CCCCN)C(=O)N[C@@H](Cc1c[nH]cn1)C(=O)N[C@@H](CC(C)C)C(=O)N[C@@H](CC(N)=O)C(=O)N[C@@H](CO)C(=O)N[C@@H](CCSC)C(=O)N[C@@H](CCCNC(=N)N)C(=O)N[C@@H](CCCNC(=N)N)C(=O)N[C@H](C(=O)N[C@@H](CCC(=O)O)C(=O)N[C@@H](Cc1c[nH]c2ccccc12)C(=O)N[C@@H](CC(C)C)C(=O)N[C@@H](CCCNC(=N)N)C(=O)N[C@@H](CCCCN)C(=O)N[C@@H](CCCCN)C(=O)N[C@@H](CC(C)C)C(=O)N[C@@H](CC1CCCCC1)C(=O)N[C@@H](CC(=O)O)C(=O)N[C@H](C(N)=O)C(C)C)C(C)C [Gln^29→Cha] (H-AVSEIQLMHNLGKHLNSMRRVEWLRKKL[Cha]DV-NH2; N-terminus assumed)	8	319 ± 57 nM		
CCCC[C@H](NC(=O)[C@H](CC(C)C)NC(=O)[C@H](CCC(N)=O)NC(=O)[C@@H](NC(=O)[C@H](CCC(=O)O)NC(=O)C(C)(C)NC(=O)[C@@H](NC(=O)C(C)(C)N)C(C)C)[C@@H](C)CC)C(=O)N[C@@H](Cc1c[nH]cn1)C(=O)N[C@@H](CCC(N)=O)C(=O)N[C@@H](CCCCNC(=N)N)C(=O)N[C@@H](C)C(=O)N[C@@H](CCCCN)C(=O)N[C@@H](Cc1c[nH]c2ccccc12)C(=O)N[C@@H](Cc1ccc(O)cc1)C(N)=O [[Aib^1,3,M]PTH(1-15), [Aib^1,3,Nle^8,Gln^10,homoarginine^11,Ala^12,Trp^14,Tyr^15]PTH(1-15)NH2, reference compound] (H-[Aib]V[Aib]EIQL[Nle]HQ[hArg]AKWY-NH2; N-terminus assumed)			2.2 ± 0.5 nM	
AVSEIQLMHNLGKHLNSMRRVEWLRKKLQDV-NH2 [[Ala^1,Arg^19]PTH(1-31)NH2]		400 nM and 397 nM		
